Measured values taken from patent US9981972B2, “N-hydroxy bicyclic hydantoin carbamates as tools for identification of serine hydrolase targets” (ABIDE THERAPEUTICS, INC., priority 2014, dated 2018).

Assays:
Assay in all cases: Gel-based competitive ABPP in vitro, mouse brain membrane proteome
Assay type in all cases: biochemical
[1] = molecular target: T1, ABHD6 (Mus musculus, UniProt Q8R2Y0); conditions: for ABHD6 in vitro enzyme activity, % @ 1 μM: mouse brain (mem) proteome; for IC50: mouse ABHD6, in vitro, read-out: mABHD6 in vitro potency (IC50)
T1 construct: from tissue; host or cells: mouse brain, membrane fraction
T1 sequence (Q8R2Y0 1-336): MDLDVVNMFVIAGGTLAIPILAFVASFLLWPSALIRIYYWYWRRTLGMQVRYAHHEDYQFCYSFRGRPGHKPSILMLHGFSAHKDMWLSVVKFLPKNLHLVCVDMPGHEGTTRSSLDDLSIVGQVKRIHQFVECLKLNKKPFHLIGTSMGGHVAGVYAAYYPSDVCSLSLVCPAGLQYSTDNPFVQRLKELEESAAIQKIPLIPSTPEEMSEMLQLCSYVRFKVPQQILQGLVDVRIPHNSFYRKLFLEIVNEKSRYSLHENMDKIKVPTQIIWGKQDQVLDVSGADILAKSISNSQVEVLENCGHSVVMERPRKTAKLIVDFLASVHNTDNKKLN
Protocol: (§1) Assay Overview: The purpose of this assay was to determine whether test compounds can inhibit LYPLA1 and LYPLA2 in a complex proteomic lysate and to assess anti-target inhibition using a competitive activity-based proteomic profiling (ABPP) assay. In this assay, a complex proteome endogenously expressing LYPLA1/2 was incubated with test compound followed by reaction with a rhodamine-conjugated fluorophosphonate (FP-Rh) serine-hydrolase specific activity-based probe. The reaction products were separated by SDS-PAGE and visualized in-gel using a flatbed fluorescence scanner. The percentage activity remaining was determined by measuring the integrated optical density of the bands. […] Percent inhibition was calculated relative to a DMSO (no compound) control.
(§2) Protocol Summary: Mouse brain membrane proteome (50 μL reaction volume, 1 mg/mL in DPBS) was treated with 0.1-100 μM test compound (1 μL of a 50× stock in DMSO) for 30 minutes at 37° C. FP-Rh (1 μL of 50× stock in DMSO, Thermo #88318) was added to a final concentration of 2 μM. The reactions were incubated for 30 minutes at 25° C., quenched with 16 μL 4×SDS-PAGE loading buffer (reducing), separated by SDS-PAGE and visualized by in-gel fluorescent scanning. The percentage activity remaining was determined by measuring the integrated optical density of the bands relative to a DMSO-only (no compound) control. Assay Cutoff: Compounds with ≥50% inhibition of targets at 1 μM test compound concentration were considered active.
Assay Overview: The purpose of this assay was to determine IC50 values of powder samples of test compounds for enzyme of interest activity, and anti-targets in a complex proteomic lysate using a gel-based competitive ABPP assay. In this assay, a complex proteome was incubated with test compound followed by reaction with FP-Rh and SDS-PAGE analysis as described above.
Protocol Summary: Soluble HeLa cell proteome (50 μL reaction volume, 1 mg/mL in DPBS) or mouse brain membrane proteome (50 μL reaction volume, 1 mg/mL in DPBS) was treated with varying concentrations of test compound (1 μL of a 50× stock in DMSO) for 30 minutes at 37° C. FP-Rh (1 μL of 50× stock in DMSO) was added to a final concentration of 2 μM. The reaction was incubated for 30 minutes at 25° C., quenched with 16 μL 4×SDS-PAGE loading buffer (reducing), separated by SDS-PAGE and visualized by in-gel fluorescent scanning. The percentage activity remaining was determined by measuring the integrated optical density of the enzymes of interest, and anti-target bands relative to a DMSO-only (no compound) control. IC50 values were determined from dose-response curves from three replicates at each inhibitor concentration: 1, 10, 100, 1000, 10000 nM and 0.01, 0.1, 1, 10, 100, 1000, 10000, 50000, and 100000 nM.

[2] = molecular target: T2, ABHD3 (Mus musculus, UniProt Q91ZH7); conditions: mouse brain (mem) proteome
T2 construct: from tissue; host or cells: mouse brain, membrane fraction
T2 sequence (Q91ZH7 1-411): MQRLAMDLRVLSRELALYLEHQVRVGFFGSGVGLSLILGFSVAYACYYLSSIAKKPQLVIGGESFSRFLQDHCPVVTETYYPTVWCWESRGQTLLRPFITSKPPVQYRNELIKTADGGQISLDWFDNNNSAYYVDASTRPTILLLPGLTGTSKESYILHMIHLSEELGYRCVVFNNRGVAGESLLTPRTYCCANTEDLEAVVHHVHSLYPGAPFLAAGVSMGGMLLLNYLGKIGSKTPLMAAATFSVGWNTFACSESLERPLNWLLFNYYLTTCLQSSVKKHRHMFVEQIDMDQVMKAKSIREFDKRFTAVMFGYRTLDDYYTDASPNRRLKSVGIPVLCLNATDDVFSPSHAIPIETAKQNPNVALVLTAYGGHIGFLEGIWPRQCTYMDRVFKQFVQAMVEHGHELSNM
Protocol: as §1, §2

[3] = molecular target: T3, ABHD12 (Mus musculus, UniProt Q99LR1); conditions: mouse brain (mem) proteome
T3 construct: from tissue; host or cells: mouse brain, membrane fraction
T3 sequence (Q99LR1 1-398): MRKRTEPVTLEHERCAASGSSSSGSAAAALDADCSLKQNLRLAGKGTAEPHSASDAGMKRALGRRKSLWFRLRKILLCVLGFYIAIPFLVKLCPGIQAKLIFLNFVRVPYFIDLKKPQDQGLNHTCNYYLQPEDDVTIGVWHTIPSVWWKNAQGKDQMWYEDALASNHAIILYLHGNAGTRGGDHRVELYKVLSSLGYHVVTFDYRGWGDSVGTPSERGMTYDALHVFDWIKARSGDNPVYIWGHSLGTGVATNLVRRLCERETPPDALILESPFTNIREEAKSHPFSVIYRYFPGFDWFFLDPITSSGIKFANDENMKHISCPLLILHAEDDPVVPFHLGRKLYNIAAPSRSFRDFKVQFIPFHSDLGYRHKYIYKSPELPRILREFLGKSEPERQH
Protocol: as §1, §2

[4] = molecular target: T4, PLA2G7 (Mus musculus, UniProt Q60963); conditions: mouse brain (mem) proteome
T4 construct: from tissue; host or cells: mouse brain, membrane fraction
T4 sequence (Q60963 22-440): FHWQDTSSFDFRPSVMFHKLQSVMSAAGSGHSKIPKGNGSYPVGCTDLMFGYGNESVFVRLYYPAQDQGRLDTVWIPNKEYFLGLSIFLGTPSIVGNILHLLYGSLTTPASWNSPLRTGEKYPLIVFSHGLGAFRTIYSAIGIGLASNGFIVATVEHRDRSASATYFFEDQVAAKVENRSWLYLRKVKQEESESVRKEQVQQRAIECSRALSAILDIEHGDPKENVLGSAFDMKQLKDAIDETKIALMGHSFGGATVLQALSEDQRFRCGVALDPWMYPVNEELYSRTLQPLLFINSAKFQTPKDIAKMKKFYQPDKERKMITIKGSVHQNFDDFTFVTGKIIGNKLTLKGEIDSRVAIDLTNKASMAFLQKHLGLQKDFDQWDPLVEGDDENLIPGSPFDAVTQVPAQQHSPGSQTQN
Protocol: as §1, §2

Row | SMILES | ABHD6 in vitro enzyme activity, % @ 1 μM [1] [% @] | ABHD3 in vitro enzyme activity, % @ 10 μM [2] [% @] | ABHD12 in vitro enzyme activity, % @ 10 μM [3] [% @] | PLA2G7 in vitro enzyme activity, % @ 10 μM [4] [% @] | IC50 [1] [nM] | PLA2G7 in vitro enzyme activity, % @ 1 μM ([4]; 1 μM) [% @]
1 | C#Cc1ccc(CCC2CCN(C(=O)ON3C(=O)[C@H]4CN(C(=O)N5CCOCC5)CCN4C3=O)CC2)cc1 [Compound 49, (R)-7-(morpholine-4-carbonyl)-1,3-dioxo-hexahydroimidazo[1,5-a]pyrazin-2(3H)-yl 4-(4-ethynylphenethyl)piperidine-1-carboxylate] | 100 | 0 | 0 | 100 |  | 
2 | O=C(ON1C(=O)[C@@H]2CN(C(=O)N3CCOCC3)CCN2C1=O)N1CCC(CCc2ccc(Cl)cc2)CC1 [Compound 50, (S)-7-(morpholine-4-carbonyl)-1,3-dioxohexahydroimidazo[1,5-a]pyrazin-2(3H)-yl 4-(4-chloro-phenethyl)piperidine-1-carboxylate] | 100 | 0 | 0 | 100 | 2.2 | 
3 | O=C(ON1C(=O)[C@H]2CN(C(=O)N3CCOCC3)CCN2C1=O)N1CCC(CCc2ccc(Cl)cc2)CC1 [Compound 51, (R)-7-(morpholine-4-carbonyl)-1,3-dioxohexahydroimidazo[1,5-a]pyrazin-2(3H)-yl 4-(4-chloro-phenethyl)piperidine-1-carboxylate] | 100 | 0 | 0 | 100 | 2.5 | 
4 | COc1ccc(N2CCN(C(=O)ON3C(=O)C4CN(CC5CCN(Cc6ccccc6)CC5)CCN4C3=O)CC2)cc1 (stereo not shown) [Compound 52, 7-((1-benzylpiperidin-4-yl)methyl)-1,3-dioxo-hexahydroimidazo[1,5-a]pyrazin-2(3H)-yl 4-(4-methoxyphenyl)piperazine-1-carboxylate] | 100 | 0 | 0 |  |  | 50
5 | C#Cc1ccc(CCC2CCN(C(=O)ON3C(=O)C4CN(C(=O)N5CCOCC5)CCN4C3=O)CC2)cc1 (stereo not shown) [Compound 53, 7-(morpholine-4-carbonyl)-1,3-dioxo-hexahydroimidazo[1,5-a]pyrazin-2(3H)-yl 4-(4-ethynylphenethyl)piperidine-1-carboxylate] | 100 | 0 | 50 | 0 |  | 
